In patent US10294202B2, “Pyrrolidinones as herbicides” (FMC Corporation, priority 2013, dated 2019):

What was measured:
deadnettle = experiment: Test D pre-/postemergence herbicide test; assay type: in vivo, Lamium amplexicaule; settings: for Plant response rating: Deadnettle, scale 0 to 100; for Plant response rating, Deadnettle: scale 0 to 100 (0 no effect, 100 complete control)
Description: (§1) Seeds of plant species selected from bluegrass (annual bluegrass, Poa annua), blackgrass (Alopecurus myosuroides), canarygrass (littleseed canarygrass, Phalaris minor), chickweed (common chickweed, Stellaria media), galium (catchweed bedstraw, Galium aparine), bromegrass, downy (downy bromegrass, Bromus tectorum), field poppy (Papaver rhoeas), field violet (Viola arvensis), foxtail, green (green foxtail, Setaria viridis), deadnettle (henbit deadnettle, Lamium amplexicaule), ryegrass, Italian (Italian ryegrass, Lolium multiflorum), kochia (Kochia scoparia), lambsquarters (Chenopodium album), oilseed rape (Brassica napus), pigweed (Amaranthus retroflexus), chamomile (scentless chamomile, Matricaria inodora), Russian thistle (Salsola kali), speedwell (bird's-eye speedwell, Veronica persica), barley, spring (spring barley, Hordeum vulgare), wheat, spring (spring wheat, Triticum aestivum), buckwheat, wild (wild buckwheat, Polygonum convolvulus), mustard, wild (wild mustard, Sinapis arvensis), oat, wild (wild oat, Avena fatua), radish, wild (wild radish, Raphanus raphanistrum), […]), barley, winter (winter barley, Hordeum vulgare), and wheat, winter (winter wheat, Triticum aestivum) were planted into a silt loam soil and treated preemergence with test chemicals formulated in a non-phytotoxic solvent mixture which included a surfactant. At the same time, these species were planted in pots containing Redi-Earth® planting medium (Scotts Company, 14111 Scottslawn Road, Marysville, Ohio 43041) comprising spaghnum peat moss, vermiculite, wetting agent and starter nutrients and treated with postemergence applications of the test chemicals formulated in the same manner. Plants ranged in height from 2 to 18 cm (1- to 4-leaf stage). Treated plants and controls were maintained in a controlled growth environment for 7 to 21 days after which time all species were compared to controls and visually evaluated. Plant response ratings, summarized in Table D, are based on a scale of 0 to 100 where 0 is no effect and 100 is complete control. A dash (-) response means no test result.

chamomile = experiment: Test D pre-/postemergence herbicide test; assay type: in vivo, Matricaria inodora; settings: for Plant response rating: Chamomile, scale 0 to 100; for Plant response rating, Chamomile: scale 0 to 100 (0 no effect, 100 complete control)
Description: as §1

dayflower, VA = experiment: Test E preemergence herbicide test; assay type: in vivo, Commelina virginica; design: key: 0 = no effect, 100 = complete control
Description: Seeds of plant species selected from corn (Zea mays), soybean (Glycine max), velvetleaf (Abutilon theophrasti), lambsquarters (Chenopodium album), wild poinsettia (Euphorbia heterophylla), pigweed, palmer (palmer pigweed, Amaranthus palmeri), waterhemp (common waterhemp, Amaranthus rudis), surinam grass (Brachiaria decumbens), crabgrass, large (large crabgrass, Digitaria sanguinalis), crabgrass, Brazil (Brazilian crabgrass, Digitaria horizontalis), panicum, fall (fall panicum, Panicum dichotomiflorum), foxtail, giant (giant foxtail, Setaria faberii), foxtail, green (green foxtail, Setaria viridis), goosegrass (Eleusine indica), johnsongrass (Sorghum halepense), ragweed (common ragweed, Ambrosia elatior), barnyardgrass (Echinochloa crus-galli), sandbur (southern sandbur, Cenchrus echinatus), arrowleaf […] rhombifolia), ryegrass, Italian (Italian ryegrass, Lolium multiflorum), dayflower, VA (Virginia dayflower, Commelina virginica), field bindweed (Convolvulus arvensis), morningglory (Ipomoea coccinea), nightshade (eastern black nightshade, Solanum ptycanthum), kochia (Kochia scoparia), nutsedge, yellow (yellow nutsedge, Cyperus esculentus), cocklebur (common cocklebur, Xanthium strumarium), smartweed (ladysthumb smartweed, Polygonum Persicaria) and beggarticks (hairy beggarticks, Bidens pilosa), were planted into a silt loam soil and treated preemergence with test chemicals formulated in a non-phytotoxic solvent mixture which included a surfactant. Treated plants and controls were maintained in a greenhouse for 21 days, after which time all species were compared to controls and visually evaluated. Plant response ratings, summarized in Table E, are based on a scale of 0 to 100 where 0 is no effect and 100 is complete control. A dash (-) response means no test result.

surinam grass = experiment: Test C pre-/postemergence herbicide test; assay type: in vivo, Brachiaria decumbens; settings: Postemergence
Description: Seeds of plant species selected from blackgrass (Alopecurus myosuroides), ryegrass, Italian (Italian ryegrass, Lolium multiflorum), wheat (winter wheat, Triticum aestivum), galium (catchweed bedstraw, Galium aparine), corn (Zea mays), crabgrass, large (large crabgrass, Digitaria sanguinalis), foxtail, giant (giant foxtail, Setaria faberii), johnsongrass (Sorghum halepense), lambsquarters (Chenopodium album), morningglory (Ipomoea coccinea), nutsedge, yellow (yellow nutsedge, Cyperus esculentus), pigweed (Amaranthus retroflexus), ragweed (common ragweed, Ambrosia elatior), soybean (Glycine max), barnyardgrass (Echinochloa crus-galli), oilseed rape (Brassica napus), waterhemp (common waterhemp, Amaranthus rudis), kochia (Kochia scoparia), oat, wild (wild oat, Avena fatua), surinam grass (Brachiaria decumbens), foxtail, green (green foxtail, Setaria viridis), goosegrass (Eleusine indica), bromegrass, downy (downy bromegrass, Bromus tectorum), nightshade (eastern black nightshade, Solanum ptycanthum), cocklebur (common cocklebur, Xanthium strumarium), cupgrass, woolly (woolly cupgrass, Eriochloa villosa), bermudagrass (Cynodon dactylon), sunflower, (common oilseed sunflower, Helianthus annuus), Russian thistle (Salsola kali) and velvetleaf (Abutilon theophrasti) were planted into a blend of loam soil and sand and treated preemergence with test chemicals formulated in a non-phytotoxic solvent mixture which included a surfactant. At the same time, plants selected from these crop and weed species and also barley (winter barley, Hordeum vulgare), […]), chickweed (common chickweed, Stellaria media), deadnettle (henbit deadnettle, Lamium amplexicaule), and canarygrass (littleseed canarygrass, Phalaris minor) were planted in pots containing Redi-Earth® planting medium (Scotts Company, 14111 Scottslawn Road, Marysville, Ohio 43041) comprising spaghnum peat moss, vermiculite, wetting agent and starter nutrients and treated with postemergence applications of test chemicals formulated in the same manner. Plants ranged in height from 2 to 18 cm (1- to 4-leaf stage) for postemergence treatments. Treated plants and controls were maintained in a greenhouse for 13 to 15 days, after which time all species were compared to controls and visually evaluated. Plant response ratings, summarized in Table C, are based on a scale of 0 to 100 where 0 is no effect and 100 is complete control. A dash (-) response means no test result.

| SMILES | Plant response rating (deadnettle; Postemergence, 31 g ai/ha) | Plant response rating (deadnettle; Postemergence, 62 g ai/ha) | Plant response rating (deadnettle; Postemergence, 125 g ai/ha) | Plant response rating, Deadnettle (deadnettle; Preemergence, 62 g ai/ha) | Plant response rating, Deadnettle (deadnettle; Preemergence, 31 g ai/ha) | Plant response rating (deadnettle; Preemergence, 125 g ai/ha) | Plant response rating (deadnettle; Preemergence, 250 g ai/ha) | Plant response rating (chamomile; Postemergence, 31 g ai/ha) | Plant response rating (chamomile; Postemergence, 62 g ai/ha) | Plant response rating (chamomile; Postemergence, 125 g ai/ha) | Plant response rating, Chamomile (chamomile; Preemergence, 62 g ai/ha) | Plant response rating, Chamomile (chamomile; Preemergence, 31 g ai/ha) | Plant response rating, Dayflower, VA (dayflower, VA; 31 g ai/ha) | Plant response rating, Dayflower, VA (dayflower, VA; 62 g ai/ha) | Plant response rating, Dayflower, VA (dayflower, VA; 125 g ai/ha) | Plant response rating, Dayflower, VA (dayflower, VA; 250 g ai/ha) | Plant response rating, Deadnettle (deadnettle; Preemergence, 125 g ai/ha) | further results |
| --- | --- | --- | --- | --- | --- | --- | --- | --- | --- | --- | --- | --- | --- | --- | --- | --- | --- | --- |
| O=C1NCC(c2ccc(F)c(F)c2)C1C(=O)Nc1ccccc1C(F)(F)F (racemic) [Compound 6] | 0 | 0 | 10 | 0 | 0 | 40 | 40 | 0 | 0 | 0 | 30 | 0 | – | – | – | – | – | Plant response rating (deadnettle; Postemergence, 16 g ai/ha): 0; Plant response rating (deadnettle; Postemergence, 250 g ai/ha): 10; Plant response rating, Deadnettle (deadnettle; Preemergence, 16 g ai/ha): 0; Plant response rating (chamomile; Postemergence, 16 g ai/ha): 0; Plant response rating (chamomile; Postemergence, 250 g ai/ha): 0; Plant response rating, Chamomile (chamomile; Preemergence, 16 g ai/ha): 0; Plant response rating (chamomile; Preemergence, 125 g ai/ha): 70; Plant response rating (chamomile; Preemergence, 250 g ai/ha): 90 |
| O=C1NCC(c2ccc(F)c(C(F)(F)F)c2)C1C(=O)Nc1cccc(F)c1F (racemic) [Compound 77] | – | – | – | 65 | 15 | 60 | 75 | – | – | – | – | – | – | – | – | – | – | – |
| O=C1NCC(c2ccc(OC(F)F)cc2)C1C(=O)Nc1cccc(F)c1F (racemic) [Compound 350] | – | – | – | – | – | – | – | – | – | – | – | – | 0 | 0 | 0 | 40 | – | – |
| O=C1NCC(c2cc(F)c(F)cc2F)C1C(=O)Nc1cccc(F)c1F (centres unmarked) [Compound 50] | 0 | 0 | 0 | 100 | 50 | 100 | – | 0 | 0 | 0 | 0 | 0 | – | – | – | – | – | Plant response rating, Surinam Grass (surinam grass; 31 g ai/ha, scale 0 (no effect) to 100 (complete control)): 5; Plant response rating, Surinam Grass (surinam grass; 62 g ai/ha, scale 0 to 100 (0 no effect, 100 complete control)): 5; Plant response rating, Surinam Grass (surinam grass; 125 g ai/ha, scale 0 to 100 (0 no effect, 100 complete control)): 5; Plant response rating, Surinam Grass (surinam grass; 250 g ai/ha, scale 0 to 100 (0 no effect, 100 complete control)): 15; Plant response rating (deadnettle; Postemergence, 16 g ai/ha): 0; Plant response rating, Deadnettle (deadnettle; Preemergence, 16 g ai/ha): 50; Plant response rating (chamomile; Postemergence, 16 g ai/ha): 0; Plant response rating, Chamomile (chamomile; Preemergence, 16 g ai/ha): 0; Plant response rating (chamomile; Preemergence, 125 g ai/ha): 5 |
| O=C1NC[C@H](c2cccc(C(F)(F)F)c2)[C@H]1C(=O)Nc1ccccc1F [Compound 204, (3R,4S)—N-(2-fluorophenyl)-2-oxo-4-[3-(trifluoromethyl)phenyl]-3-pyrrolidinecarboxamide] | – | – | – | 25 | 25 | – | 35 | – | – | – | – | – | 0 | 0 | 20 | 30 | 25 | – |
| O=C1NC[C@H](c2cccc(C(F)(F)F)c2)[C@H]1C(=O)Nc1cccc(F)c1F [Compound 206] | – | – | – | 35 | 20 | – | 75 | – | – | – | – | – | 0 | 0 | 0 | 20 | 40 | – |
| O=C1NCC(c2ccc(C(F)(F)F)cc2)C1C(=O)Nc1ccccc1F (centres unmarked) [Compound 231] | 35 | 70 | 35 | 75 | 35 | – | 85 | 20 | 25 | 50 | 75 | 75 | – | – | – | – | 60 | Plant response rating (deadnettle; Postemergence, 250 g ai/ha): 70; Plant response rating (chamomile; Postemergence, 250 g ai/ha): 50; Plant response rating, Chamomile (chamomile; Preemergence, 125 g ai/ha): 80; Plant response rating (chamomile; Preemergence, 250 g ai/ha): 100 |
